Where two headings read alike, the source gives them in different places.
Assays:
CCK receptor (pancreas) = biological target: T1, CCK receptor (pancreas) (Rattus norvegicus, UniProt P30551); assay: CCK Receptor Binding (Pancreas), inhibition of 125I-CCK-8 binding; parameters: species or system rat (male Sprague-Dawley)
T1 construct: The whole pancreas was dissected free of fat tissue and was homogenized; from tissue; host or cells: pancreas of male Sprague-Dawley rats (membrane homogenate)
T1 sequence (P30551 1-444): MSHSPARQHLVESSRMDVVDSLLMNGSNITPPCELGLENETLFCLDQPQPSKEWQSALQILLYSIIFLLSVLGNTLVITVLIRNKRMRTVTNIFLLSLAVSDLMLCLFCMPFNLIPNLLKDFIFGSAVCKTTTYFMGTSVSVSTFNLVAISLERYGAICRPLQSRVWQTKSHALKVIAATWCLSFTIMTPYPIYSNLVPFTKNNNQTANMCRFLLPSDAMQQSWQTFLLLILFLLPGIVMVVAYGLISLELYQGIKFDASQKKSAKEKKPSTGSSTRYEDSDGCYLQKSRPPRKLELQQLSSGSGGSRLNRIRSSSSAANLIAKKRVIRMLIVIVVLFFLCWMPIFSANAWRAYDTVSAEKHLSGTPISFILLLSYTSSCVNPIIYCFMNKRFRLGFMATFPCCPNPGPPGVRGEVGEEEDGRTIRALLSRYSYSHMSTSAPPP
Experimental: Male Sprague-Dawley rats (150-200 g) were sacrificed by decapitation. The whole pancreas was dissected free of fat tissue and was homogenized in 25 volumes of ice-cold 10 mMN-2-hydroxyethyl-piperazine-N'-2-ethane sulphonic acid (HEPES) buffer with 0.1% soya bean trypsin inhibitor (pH 7.4 at 25° C.) with a Kinematica Polytron. The homogenates were centrifuged at 47,800 g for 10 min. Pellets were resuspended in 10 volumes of binding assay buffer (20mM (HEPES)), 1 mM ethylene glycol-bis-(β-aminoethylether-N,N'-tetraacetic acid) (EGTA), 5mM MgCl2, 150 mM NaCl, bacitracin 0.25 mg/ml, soya bean trypsin inhibitor 0.1 mg/ml, and bovine serum albumin 2 mg/ml pH 6.5 at 25° C.) using a Teflon (trademark) homogenizer, 15 strokes at 500 rpm. The homogenate was further diluted in binding assay buffer to give a final concentration of 0.5 mg original wet weight/1 ml buffer. […] All assays were run in duplicate. The reaction mixtures were incubated at 25° C. for 2 hours and the reaction terminated by rapid filtration (Brandell 24 well cell harvester) over Whatman GF/C filters, washing 3×4 mls with ice-cold 100 Mm NaCl. The radioactivity on the filters was counted with a LKB gamma counter.

CCK receptor (brain) = biological target: T2, CCK receptor (brain) (Cavia porcellus, UniProt H0VZC5); assay: CCK Receptor Binding (Brain), inhibition of 125I-CCK-8 binding; parameters: species or system guinea pig (male Hartley); conditions: guinea pig cortex membranes, 50 pM 125I-CCK-8, pH 6.5, 25° C., 2 hours
T2 construct: the cortex was removed and homogenized in 25 mL ice-cold 0.32M sucrose; from tissue; host or cells: cortex of male Hartley guinea pigs (P2 membrane pellet)
T2 sequence (H0VZC5 1-426): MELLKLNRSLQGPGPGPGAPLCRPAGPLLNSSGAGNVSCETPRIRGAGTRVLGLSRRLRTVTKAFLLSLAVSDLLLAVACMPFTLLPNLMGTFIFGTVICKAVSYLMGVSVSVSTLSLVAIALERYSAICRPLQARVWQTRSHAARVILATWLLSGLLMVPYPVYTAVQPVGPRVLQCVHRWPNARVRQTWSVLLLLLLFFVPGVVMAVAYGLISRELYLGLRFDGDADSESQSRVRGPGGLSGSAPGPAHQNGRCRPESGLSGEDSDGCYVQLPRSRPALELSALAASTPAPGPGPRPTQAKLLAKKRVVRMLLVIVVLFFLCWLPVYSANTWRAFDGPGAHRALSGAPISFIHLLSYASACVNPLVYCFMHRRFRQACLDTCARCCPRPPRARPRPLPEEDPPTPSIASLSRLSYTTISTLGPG
Experimental: CCK-8 sulphated was radiolabelled and the binding was performed according to the description for the pancreas method with minor modifications.
Male Hartley guinea pigs (300-500 g) were sacrificed by decapitation and the cortex was removed and homogenized in 25 mL ice-cold 0.32M sucrose. The homogenates were centrifuged at 1000 g for 10 minutes and the resulting supernatant was recentrifuged at 20,000 g for 20 minutes. The P2 pellet was resuspended in binding assay buffer (20mM HEPES, 5 mM MgCl2, 0.25 mg/ml bacitracin, 1 mM EGTA pH 6.5 at 25° C.), using a Teflon (trademark) homogenizer (5 strokes at 500 rpm) to give a final concentration of 10 mg original wet weight/1.2 ml buffer. For the binding assay, 50 μl of buffer (for total binding) or unlabelled CCK-8 sulphated to give a final concentration of 1 μM (for nonspecific binding) or the compounds of Formula I (for determination of inhibition of ^125 I-CCK-8 binding) and 50 μl of 500 pM ^125 I-CCK-8 (i.e. final concentration of 50 pM) were added to 400 μl of the membrane suspensions in microfuge tubes. All assays were run in duplicate. The reaction mixtures were incubated at 25° C. for 2 hours and then the reaction was terminated by rapid filtration (Brandell 24 well cell harvester) on Whatman GF/C filters with 3×5 ml washes of cold 100 mM NaCl. The radioactivity on the filters was counted with a LKB gamma counter.
Drug displacement studies were performed with at least 10 concentrations of compounds of Formula I and the IC50 values were determined by regression analysis IC50 refers to the concentration of the compound required to inhibit 50% of specific binding of ^125 I-CCK-8.

[1] = rat pancreas membranes, 50 pM 125I-CCK-8, pH 6.5, 25° C., 2 hours, read-out: CCK RECEPTOR BINDING RESULTS IC50, 125I-CCK Pancreas

Compound `CN1C(=O)C(NC(=O)Nc2cccc(C3=C(O)CNC3=O)c2)N=C(C2CCCCC2)c2ccccc21` (racemic) [Example 2, N-[3(R,S)-5-Cyclohexyl-2,3-dihydro-1-methyl-2-oxo-1H-1,4-benzodiazepin-3-yl]N'-[3-(2,5-dihydro-4-hydroxy-2-oxopyrrol-3-yl)phenyl]urea] has an IC50 (CCK receptor (pancreas); [1]) of 7.5 nM and an IC50 (CCK receptor (brain)) of 2.9 nM.

Compound `CN1C(=O)C(NC(=O)Nc2cccc(C3=C(O)CSC3=O)c2)N=C(C2CCCCC2)c2ccccc21` (racemic) [Example 1, N-[3(R,S)-5-Cyclohexyl-2,3,dihydro-1-methyl-2-oxo-1H-1,4-benzodiazepin-3-yl]N', [3-(2,5,dihydro-4-hydroxy-2-oxothien,3-yl)phenyl]urea] has an IC50 (CCK receptor (pancreas); [1]) of 13 nM and an IC50 (CCK receptor (brain)) of 3.9 nM.

Compound `CN1C(=O)[C@H](NC(=O)Nc2cccc(C3=C(O)CNC3=O)c2)N=C(c2ccccc2)c2ccccc21` [Example 3, N-[3(R)-2,3-Dihydro-1-methyl-2-oxo-5-phenyl-1H-1,4-benzodiazepin-3-yl]N'-[3-(2,5-dihydro-4-hydroxy-2-oxopyrrol-3-yl)phenyl]urea] has an IC50 (CCK receptor (pancreas)) greater than 3000 nM and an IC50 (CCK receptor (brain)) of 16 nM.

`CN1C(=O)[C@H](NC(=O)Nc2cccc(C3=C(O)CNC3=O)c2)N=C(C2CCCCC2)c2ccccc21` [Example 6, N-[3(R)-5-Cyclohexyl-2,3-dihydro-1-methyl-2-oxo-1H-1,4-benzodiazepin-3-yl]N'-[3-(2,5-dihydro-4-hydroxy-2oxopyrrol-3-yl)phenyl]urea] gave an IC50 (CCK receptor (pancreas); [1]) of 110 nM and an IC50 (CCK receptor (brain)) of 0.67 nM.

For `CN1CC(O)=C(c2cccc(NC(=O)N[C@@H]3N=C(C4CCCCC4)c4ccccc4N(C)C3=O)c2)C1=O` [Example 5, N-[3(R)-5-Cyclohexyl-2,3-dihydro-1-methyl-2-oxo-1H-1,4-benzodiazepin-3-yl]N'-[3-(2,5-dihydro-4-hydroxy-N-methyl-2-oxopyrrol-3-yl)phenyl] urea], the IC50 (CCK receptor (pancreas); [1]) was 280 nM and the IC50 (CCK receptor (brain)) was 2.5 nM.

`CN1CC(O)=C(c2cccc(NC(=O)NC3N=C(C4CCCCC4)c4ccccc4N(C)C3=O)c2)C1=O` (racemic) [Example 4, N-[3(R,S)-5-Cyclohexyl-2,3-dihydro-1-methyl-2-oxo-1H-1,4-benzodiazepin-3-yl]N'-[3-(2,5-dihydro-4-hydroxy-N-methyl-2-oxopyrrol-3-yl)phenyl]urea] showed an IC50 (CCK receptor (pancreas); [1]) of 56 nM and an IC50 (CCK receptor (brain)) of 6.3 nM.

— US5410049A, “Benzodiazepine derivatives, compositions containing them and their use in therapy” (Merck Sharpe & Dohme Ltd., priority 1991, dated 1995)
